Like-named read-outs stand apart in the source and are kept apart here.
Key:
Assay in all cases: NCI anticancer screen, SRB assay, 48 h
Format in all cases: cell-based, human
786-0 (renal) = settings: Homo sapiens
Protocol: (§1) Some of biological activity studies were carried out at the National Cancer Institute (NCI), Maryland, USA.
(§2) The compounds were evaluated for anticancer activity against fifty three human cancer cells derived from nine cancer types (leukemia cell line, non-small-cell lung cell line, colon cell line, CNS cell line, melanoma cell line, ovarian cell line, prostate cell line, and breast cancer cell line) as shown in Table 1. For each compound, dose response curves for each cell line were measured at a minimum of five concentrations at 10 fold dilutions. A protocol of 48 h continuous drug exposure was used and a sulforhodamine B (SRB) protein assay was used to estimate cell viability or growth.

A498 (renal) = settings: Homo sapiens
Protocol: as §1, §2

ACHN (renal) = settings: Homo sapiens
Protocol: as §1, §2

BT-549 (breast) = settings: Homo sapiens
Protocol: as §1, §2

COLO 205 (colon) = settings: Homo sapiens, COLO 205
Protocol: as §1, §2

[1] = system: EKVX (non-small cell lung); settings: Homo sapiens
Protocol: as §1, §2

[2] = system: HOP-62 (non-small cell lung); settings: Homo sapiens
Protocol: as §1, §2

[3] = system: HOP-92 (non-small cell lung); settings: Homo sapiens
Protocol: as §1, §2

HS 578T (breast) = settings: Homo sapiens
Protocol: as §1, §2

HT29 (colon) = settings: Homo sapiens
Protocol: as §1, §2

[4] = system: K-562 (leukemia cell line); settings: Homo sapiens
Protocol: as §1, §2

KM12 (colon) = settings: Homo sapiens
Protocol: as §1, §2

LOX IMVI (melanoma) = settings: Homo sapiens
Protocol: as §1, §2

M14 (melanoma) = settings: Homo sapiens
Protocol: as §1, §2

MALME-3M (melanoma) = settings: Homo sapiens
Protocol: as §1, §2

MCF7 (breast) = settings: Homo sapiens
Protocol: as §1, §2

MDA-MB-231/ATCC (breast) = settings: Homo sapiens
Protocol: as §1, §2

[5] = system: NCI-H23 (non-small cell lung); settings: Homo sapiens
Protocol: as §1, §2

[6] = system: NCI-H322M (non-small cell lung); settings: Homo sapiens
Protocol: as §1, §2

[7] = system: NCI-H460 (non-small cell lung); settings: Homo sapiens
Protocol: as §1, §2

[8] = system: NCI-H522 (non-small cell lung); settings: Homo sapiens
Protocol: as §1, §2

OVCAR-3 (ovarian) = settings: Homo sapiens
Protocol: as §1, §2

OVCAR-5 (ovarian) = settings: Homo sapiens
Protocol: as §1, §2

OVCAR-8 (ovarian) = settings: Homo sapiens
Protocol: as §1, §2

RXF 393 (renal) = settings: Homo sapiens
Protocol: as §1, §2

SF-268 (CNS) = settings: Homo sapiens
Protocol: as §1, §2

SF-295 (CNS) = settings: Homo sapiens
Protocol: as §1, §2

SF-539 (CNS) = settings: Homo sapiens
Protocol: as §1, §2

SK-MEL-2 (melanoma) = settings: Homo sapiens
Protocol: as §1, §2

SK-MEL-28 (melanoma) = settings: Homo sapiens
Protocol: as §1, §2

SK-OV-3 (ovarian) = settings: Homo sapiens
Protocol: as §1, §2

SNB-75 (CNS) = settings: Homo sapiens
Protocol: as §1, §2

SW-620 (colon) = settings: Homo sapiens
Protocol: as §1, §2

UACC-62 (melanoma) = settings: Homo sapiens
Protocol: as §1, §2

UO-31 (renal) = settings: Homo sapiens
Protocol: as §1, §2

PC-3 (prostate) = settings: Homo sapiens
Protocol: as §1, §2

[9] = 48 h exposure, SRB, read-out: GI50
[10] = read-out: pGI50 (-log of molar concentration causing 50% inhibition of net cell growth) (converted)
[11] = COLO205, read-out: pGI50 (-log of molar concentration causing 50% inhibition of net cell growth) (converted)
[12] = HT-29, 48 h exposure, SRB, read-out: GI50
[13] = HT-29, read-out: pGI50 (-log of molar concentration causing 50% inhibition of net cell growth) (converted)
[14] = K562, 48 h exposure, SRB, read-out: GI50
[15] = K562, read-out: pGI50 (-log of molar concentration causing 50% inhibition of net cell growth) (converted)
[16] = Malme-3M, read-out: pGI50 (-log of molar concentration causing 50% inhibition of net cell growth) (converted)
[17] = MALME-3M, 48 h exposure, SRB, read-out: GI50
[18] = RXF 393, 48 h exposure, SRB, read-out: GI50
[19] = RXF-393, read-out: pGI50 (-log of molar concentration causing 50% inhibition of net cell growth) (converted)

O=C(/C=C/c1cccc(O)c1)c1cccc(-n2cc(-c3ccc(Cl)cc3)[nH]c2=O)c1 [4f, 4-(4-chlorophenyl)-1-3-[(E)-3-(3-hydroxyphenyl)-2-propenoyl]phenyl-2,3-dihydro-1H-2-imidazolone]
GI50 (786-0 (renal); [9]): 1570 nM
GI50 (786-0 (renal); [10]): 1580 nM
GI50 (A498 (renal); [9]): 3710 nM
GI50 (A498 (renal); [10]): 3720 nM
GI50 (ACHN (renal); [9]): 1840 nM
GI50 (ACHN (renal); [10]): 1820 nM
GI50 (BT-549 (breast); [9]): 1450 nM
GI50 (BT-549 (breast); [10]): 1450 nM
GI50 (COLO 205 (colon); [11]): 2290 nM
GI50 (COLO 205 (colon); [9]): 2290 nM
GI50 [1, 9]: 2400 nM
GI50 [1, 10]: 2400 nM
GI50 [2, 9]: 2360 nM
GI50 [2, 10]: 2340 nM
GI50 [3, 9]: 1600 nM
GI50 [3, 10]: 1580 nM
GI50 (HS 578T (breast); [9]): 4000 nM
GI50 (HS 578T (breast); [10]): 3980 nM
GI50 (HT29 (colon); [12]): 1900 nM
GI50 (HT29 (colon); [13]): 1910 nM
GI50 [4, 14]: 400 nM
GI50 [4, 15]: 398 nM
GI50 (KM12 (colon); [9]): 1340 nM
GI50 (KM12 (colon); [10]): 1350 nM
GI50 (LOX IMVI (melanoma); [9]): 1570 nM
GI50 (LOX IMVI (melanoma); [10]): 1580 nM
GI50 (M14 (melanoma); [9]): 2010 nM
GI50 (M14 (melanoma); [10]): 2000 nM
GI50 (MALME-3M (melanoma); [16]): 1820 nM
GI50 (MALME-3M (melanoma); [17]): 1830 nM
GI50 (MCF7 (breast); [9]): 1270 nM
GI50 (MCF7 (breast); [10]): 1290 nM
GI50 (MDA-MB-231/ATCC (breast); [9]): 3350 nM
GI50 (MDA-MB-231/ATCC (breast); [10]): 3390 nM
GI50 [5, 9]: 2780 nM
GI50 [5, 10]: 2750 nM
GI50 [6, 9]: 2520 nM
GI50 [6, 10]: 2510 nM
GI50 [7, 9]: 2410 nM
GI50 [7, 10]: 2400 nM
GI50 [8, 9]: 1650 nM
GI50 [8, 10]: 1660 nM
GI50 (OVCAR-3 (ovarian); [9]): 1560 nM
GI50 (OVCAR-3 (ovarian); [10]): 1550 nM
GI50 (OVCAR-5 (ovarian); [9]): 2190 nM
GI50 (OVCAR-5 (ovarian); [10]): 2190 nM
GI50 (OVCAR-8 (ovarian); [9]): 990 nM
GI50 (OVCAR-8 (ovarian); [10]): 1000 nM
GI50 (RXF 393 (renal); [18]): 1510 nM
GI50 (RXF 393 (renal); [19]): 1510 nM
GI50 (SF-268 (CNS); [9]): 1780 nM
GI50 (SF-268 (CNS); [10]): 1780 nM
GI50 (SF-295 (CNS); [9]): 1790 nM
GI50 (SF-295 (CNS); [10]): 1780 nM
GI50 (SF-539 (CNS); [9]): 1680 nM
GI50 (SF-539 (CNS); [10]): 1700 nM
GI50 (SK-MEL-2 (melanoma); [9]): 2070 nM
GI50 (SK-MEL-2 (melanoma); [10]): 2090 nM
GI50 (SK-MEL-28 (melanoma); [9]): 3640 nM
GI50 (SK-MEL-28 (melanoma); [10]): 3630 nM
GI50 (SK-OV-3 (ovarian); [9]): 4210 nM
GI50 (SK-OV-3 (ovarian); [10]): 4170 nM
GI50 (SNB-75 (CNS); [9]): 1460 nM
GI50 (SNB-75 (CNS); [10]): 1450 nM
GI50 (SW-620 (colon); [9]): 1620 nM
GI50 (SW-620 (colon); [10]): 1620 nM
GI50 (UACC-62 (melanoma); [9]): 1850 nM
GI50 (UACC-62 (melanoma); [10]): 1860 nM
GI50 (UO-31 (renal); [9]): 550 nM
GI50 (UO-31 (renal); [10]): 550 nM

COc1cc(/C=C/C(=O)c2cccc(-n3cc(-c4cc(OC)c(OC)c(OC)c4)[nH]c3=O)c2)cc(OC)c1OC [5d, 4-(3,4,5-trimethoxyphenyl)-1-3-[(E)-3-(3,4,5-trimethoxyphenyl)-2-propenoyl]phenyl-2,3-dihydro-1H-2-imidazolone]
GI50 (786-0 (renal); [9]): 1590 nM
GI50 (786-0 (renal); [10]): 1580 nM
GI50 (A498 (renal); [9]): 20300 nM
GI50 (A498 (renal); [10]): 20400 nM
GI50 (ACHN (renal); [9]): 1740 nM
GI50 (ACHN (renal); [10]): 1740 nM
GI50 (BT-549 (breast); [9]): 1520 nM
GI50 (BT-549 (breast); [10]): 1510 nM
GI50 (COLO 205 (colon); [11]): 1510 nM
GI50 (COLO 205 (colon); [9]): 1520 nM
GI50 [1, 9]: 9470 nM
GI50 [1, 10]: 9550 nM
GI50 [2, 9]: 3080 nM
GI50 [2, 10]: 3090 nM
GI50 (HT29 (colon); [12]): 1700 nM
GI50 (HT29 (colon); [13]): 1700 nM
GI50 [4, 14]: 590 nM
GI50 [4, 15]: 589 nM
GI50 (KM12 (colon); [9]): 1120 nM
GI50 (KM12 (colon); [10]): 1120 nM
GI50 (LOX IMVI (melanoma); [9]): 1230 nM
GI50 (LOX IMVI (melanoma); [10]): 1230 nM
GI50 (M14 (melanoma); [9]): 2120 nM
GI50 (M14 (melanoma); [10]): 2140 nM
GI50 (MALME-3M (melanoma); [16]): 1820 nM
GI50 (MALME-3M (melanoma); [17]): 1800 nM
GI50 (MCF7 (breast); [9]): 470 nM
GI50 (MCF7 (breast); [10]): 468 nM
GI50 (MDA-MB-231/ATCC (breast); [9]): 4190 nM
GI50 (MDA-MB-231/ATCC (breast); [10]): 4170 nM
GI50 [5, 9]: 2000 nM
GI50 [5, 10]: 2000 nM
GI50 [6, 9]: 3610 nM
GI50 [6, 10]: 3630 nM
GI50 [7, 9]: 1730 nM
GI50 [7, 10]: 1740 nM
GI50 [8, 9]: 1050 nM
GI50 [8, 10]: 1050 nM
GI50 (OVCAR-3 (ovarian); [9]): 1480 nM
GI50 (OVCAR-3 (ovarian); [10]): 1480 nM
GI50 (OVCAR-5 (ovarian); [9]): 4380 nM
GI50 (OVCAR-5 (ovarian); [10]): 4370 nM
GI50 (OVCAR-8 (ovarian); [9]): 2320 nM
GI50 (OVCAR-8 (ovarian); [10]): 2340 nM
GI50 (PC-3 (prostate); PC-3, read-out: pGI50 (-log of molar concentration causing 50% inhibition of net cell growth) (converted)): 2630 nM
GI50 (PC-3 (prostate); one prostate cancer cell line (PC-3), exposure at least 48 hrs, read-out: GI50): 2630 nM
GI50 (RXF 393 (renal); [18]): 1620 nM
GI50 (RXF 393 (renal); [19]): 1620 nM
GI50 (SF-268 (CNS); [9]): 2200 nM
GI50 (SF-268 (CNS); [10]): 2190 nM
GI50 (SF-295 (CNS); [9]): 4960 nM
GI50 (SF-295 (CNS); [10]): 5010 nM
GI50 (SF-539 (CNS); [9]): 3120 nM
GI50 (SF-539 (CNS); [10]): 3090 nM
GI50 (SK-MEL-2 (melanoma); [9]): 3020 nM
GI50 (SK-MEL-2 (melanoma); [10]): 3020 nM
GI50 (SK-MEL-28 (melanoma); [9]): 1610 nM
GI50 (SK-MEL-28 (melanoma); [10]): 1620 nM
GI50 (SK-OV-3 (ovarian); [9]): 5120 nM
GI50 (SK-OV-3 (ovarian); [10]): 5130 nM
GI50 (SNB-75 (CNS); [9]): 5130 nM
GI50 (SNB-75 (CNS); [10]): 5130 nM
GI50 (SW-620 (colon); [9]): 1030 nM
GI50 (SW-620 (colon); [10]): 1020 nM
GI50 (UACC-62 (melanoma); [9]): 1870 nM
GI50 (UACC-62 (melanoma); [10]): 1860 nM
GI50 (UO-31 (renal); [9]): 960 nM
GI50 (UO-31 (renal); [10]): 955 nM

From patent US8889874B2, “Imidazolone-chalcone derivatives as potential anticancer agent and process for the preparation thereof” (Council of Scientific and Industrial Research, priority 2010, dated 2014)
